# Results published in ChEMBL document CHEMBL1201862, “PubChem BioAssay data set” (2004).
# The source made the active and inactive calls.
# What was measured:
# Leucine aminopeptidase = target: T1, Leucine aminopeptidase (Plasmodium falciparum 3D7, UniProt Q8IL11); test: P. falciparum M17LAP inhibitors, primary screen, biochemical, fluorogenic H-Leu-NHMec substrate, 1536-well (AID 1619); assay type: functional
# T1 sequence (Q8IL11 whole entry): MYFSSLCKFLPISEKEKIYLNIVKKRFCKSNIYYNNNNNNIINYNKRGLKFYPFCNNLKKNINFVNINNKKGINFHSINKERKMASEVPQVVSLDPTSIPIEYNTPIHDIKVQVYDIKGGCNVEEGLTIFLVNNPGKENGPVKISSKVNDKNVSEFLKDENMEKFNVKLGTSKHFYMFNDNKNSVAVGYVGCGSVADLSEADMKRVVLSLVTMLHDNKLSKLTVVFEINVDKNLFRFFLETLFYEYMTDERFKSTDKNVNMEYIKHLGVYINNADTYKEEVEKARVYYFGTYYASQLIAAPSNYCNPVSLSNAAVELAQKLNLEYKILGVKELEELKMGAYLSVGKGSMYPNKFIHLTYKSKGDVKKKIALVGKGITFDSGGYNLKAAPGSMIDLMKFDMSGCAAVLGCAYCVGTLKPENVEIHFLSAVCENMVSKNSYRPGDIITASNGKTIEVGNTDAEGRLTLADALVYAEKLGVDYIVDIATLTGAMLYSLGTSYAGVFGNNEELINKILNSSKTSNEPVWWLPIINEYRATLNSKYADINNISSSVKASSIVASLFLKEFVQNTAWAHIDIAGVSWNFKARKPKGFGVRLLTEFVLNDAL
# [1] = target: FAD-linked sulfhydryl oxidase ALR (Homo sapiens, UniProt P55789); test: ALR-catalysed DTT oxidation blockers – biochemical, H2O2 detection, luminescence, cherry-pick, dose response (AID 493248)
# FAD-linked sulfhydryl oxidase ALR, sequence (P55789 whole entry): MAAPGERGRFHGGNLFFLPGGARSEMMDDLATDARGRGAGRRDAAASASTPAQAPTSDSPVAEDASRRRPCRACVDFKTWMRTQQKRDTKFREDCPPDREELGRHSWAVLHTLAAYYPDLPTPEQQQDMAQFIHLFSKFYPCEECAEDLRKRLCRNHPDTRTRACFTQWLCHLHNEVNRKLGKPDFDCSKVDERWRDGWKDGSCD
# [2] = target: T2, Heat shock factor protein 1 (Mus musculus, UniProt P38532); test: enhancement of HSF1-driven luciferase signal – cell-based, NIH3T3, luminescence, dose retest, confirmation (AID 435004); assay type: functional;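 note: stress induced by proteasome inhibitor MG132 added 30 min after compound; luciferase reporter driven by HSF1 response element in NIH3T3 cells; actives raise luminescence as potentiators of the MG132 stress response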
# T2 sequence (P38532 whole entry): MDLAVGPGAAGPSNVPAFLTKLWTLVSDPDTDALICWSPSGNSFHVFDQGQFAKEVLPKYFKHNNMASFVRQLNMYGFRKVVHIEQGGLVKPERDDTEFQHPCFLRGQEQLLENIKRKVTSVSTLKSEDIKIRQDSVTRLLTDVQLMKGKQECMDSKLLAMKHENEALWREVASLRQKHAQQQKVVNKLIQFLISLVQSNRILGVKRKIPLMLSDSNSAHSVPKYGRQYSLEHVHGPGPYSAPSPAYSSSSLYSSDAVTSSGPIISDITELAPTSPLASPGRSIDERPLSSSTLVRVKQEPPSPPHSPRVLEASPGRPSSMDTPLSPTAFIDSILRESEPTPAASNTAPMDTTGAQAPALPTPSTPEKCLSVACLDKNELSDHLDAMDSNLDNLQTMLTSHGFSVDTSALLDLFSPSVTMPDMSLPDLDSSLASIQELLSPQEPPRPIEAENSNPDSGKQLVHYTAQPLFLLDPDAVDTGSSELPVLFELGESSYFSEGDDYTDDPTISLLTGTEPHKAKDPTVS
# Nonstructural protein 1 = Nonstructural protein 1 (Influenza A virus, UniProt Q194T2); assay type: functional, Influenza A virus (A/California/07/2009(H1N1))
# Nonstructural protein 1, sequence (Q194T2 whole entry): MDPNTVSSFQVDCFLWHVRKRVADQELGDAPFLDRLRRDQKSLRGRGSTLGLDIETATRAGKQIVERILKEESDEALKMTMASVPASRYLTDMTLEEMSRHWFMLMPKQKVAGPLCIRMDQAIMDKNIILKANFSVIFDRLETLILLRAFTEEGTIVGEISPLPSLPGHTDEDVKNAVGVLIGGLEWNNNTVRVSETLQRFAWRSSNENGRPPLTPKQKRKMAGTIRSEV
# [3] = target: Luciferin 4-monooxygenase (Photinus pyralis, UniProt P08659); test: inhibition of purified Photinus pyralis luciferase – biochemical, luminescence, dose response (AID 1891)
# Luciferin 4-monooxygenase, sequence (P08659 whole entry): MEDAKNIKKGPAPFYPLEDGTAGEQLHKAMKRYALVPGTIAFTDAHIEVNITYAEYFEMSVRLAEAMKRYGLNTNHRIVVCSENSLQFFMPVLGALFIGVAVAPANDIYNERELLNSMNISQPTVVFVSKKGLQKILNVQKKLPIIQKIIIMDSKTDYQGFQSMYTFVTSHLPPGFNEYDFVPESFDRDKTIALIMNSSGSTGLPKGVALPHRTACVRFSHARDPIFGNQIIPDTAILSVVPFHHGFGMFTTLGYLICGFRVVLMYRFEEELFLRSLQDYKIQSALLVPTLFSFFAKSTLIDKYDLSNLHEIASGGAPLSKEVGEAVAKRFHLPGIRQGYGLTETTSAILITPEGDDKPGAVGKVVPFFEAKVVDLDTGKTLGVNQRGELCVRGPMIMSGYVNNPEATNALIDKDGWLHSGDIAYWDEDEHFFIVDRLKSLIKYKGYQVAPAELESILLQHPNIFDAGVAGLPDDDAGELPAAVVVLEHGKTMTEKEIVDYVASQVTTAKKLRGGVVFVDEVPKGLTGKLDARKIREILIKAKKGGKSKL
# [4] = Luminescence Cell-Based Dose Confirmation HTS to Identify Inhibitors of Platelet Dense Granule Release. [Related pubchem assays: 1663 (Primary HTS), 1678 (Summary of Project)]; assay type: functional
# [5] = Trypanosoma cruzi growth suppression in host cells – NIH3T3 host cells, beta-gal luminescence, confirmation (AID 2044); assay type: functional, cell-based;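 note: intracellular parasites grown in NIH/3T3 mouse fibroblasts as host cells; luminescent beta-galactosidase reporter signal from transgenic T. cruzi replicating inside host cells; inhibitors lower the luminescence signal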
# cells [6] = test: cells
# [7] = NIH3T3 cell viability loss – ATP luminescence, mouse fibroblasts, counter-screen, dose response (AID 2010); assay type: functional, cell-based;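 note: cells exposed to compound for about 90 hours before reading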
# [8] = target: Eukaryotic translation initiation factor 4E (Mus musculus, UniProt P63073); test: blockers of eIF4G binding by eIF4E – biochemical, TR-FRET, dose response (AID 855); assay type: functional;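 note: potency for disrupting eIF4E binding to eIF4GI seen as loss of FRET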
# Eukaryotic translation initiation factor 4E, sequence (P63073 whole entry): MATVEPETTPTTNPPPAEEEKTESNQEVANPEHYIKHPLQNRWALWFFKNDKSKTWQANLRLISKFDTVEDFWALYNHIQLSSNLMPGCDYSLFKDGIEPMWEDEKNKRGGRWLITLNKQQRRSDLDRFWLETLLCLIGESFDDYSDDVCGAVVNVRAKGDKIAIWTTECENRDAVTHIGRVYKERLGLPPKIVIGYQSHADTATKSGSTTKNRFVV
# [9] = THP-1 cell cytotoxicity, dose response, cytotoxicity control for non-replicating M. tuberculosis project (AID 489025); assay type: functional
# [10] = microbe, parasite or virus in culture; assay type: functional; settings: Mycobacterium tuberculosis
# cells [11] = assay type: functional
# [12] = tested on: Streptococcus sp. 'group A'; test: Streptococcus pyogenes SK(-)GAS viability under kanamycin – luminescence, BacTiterGlo, confirmation, counter-screen for streptokinase expression inhibitor project, dose response (AID 1900); assay type: functional, organism-based
# Streptococcus = test: GAS UMAA2166 growth inhibition – luminescence, BacTiterGlo, counter-screen for streptokinase expression inhibitor project, dose response (AID 1915); assay type: functional, organism-based;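 note: potency for reduction of bacterial viability or growth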
# [13] = viability of HCT116 lacking mutant beta-catenin – cell-based, human colon tumor, dose response (AID 1045); assay type: functional;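 note: HCT116 colon tumor cells with beta catenin knocked out; cells exposed to compound for 60 hours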
# [14] = viability of PTEN-deleted HCT116 cells – cell-based, HCT116 PTEN knockout, dose response (AID 1047); assay type: functional;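 note: HCT116 colon tumor cells with PTEN knocked out; cells exposed to compound for 60 hours before readout; potency for loss of cell viability measured by luminescence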
# [15] = target: T3, Replicative DNA helicase DnaB (Mycobacterium tuberculosis, UniProt P9WMR3); test: DnaB intein splicing inhibitors, dose response, biochemical, cell-free fluorescence (AID 449749); assay type: functional
# T3 sequence (P9WMR3 whole entry): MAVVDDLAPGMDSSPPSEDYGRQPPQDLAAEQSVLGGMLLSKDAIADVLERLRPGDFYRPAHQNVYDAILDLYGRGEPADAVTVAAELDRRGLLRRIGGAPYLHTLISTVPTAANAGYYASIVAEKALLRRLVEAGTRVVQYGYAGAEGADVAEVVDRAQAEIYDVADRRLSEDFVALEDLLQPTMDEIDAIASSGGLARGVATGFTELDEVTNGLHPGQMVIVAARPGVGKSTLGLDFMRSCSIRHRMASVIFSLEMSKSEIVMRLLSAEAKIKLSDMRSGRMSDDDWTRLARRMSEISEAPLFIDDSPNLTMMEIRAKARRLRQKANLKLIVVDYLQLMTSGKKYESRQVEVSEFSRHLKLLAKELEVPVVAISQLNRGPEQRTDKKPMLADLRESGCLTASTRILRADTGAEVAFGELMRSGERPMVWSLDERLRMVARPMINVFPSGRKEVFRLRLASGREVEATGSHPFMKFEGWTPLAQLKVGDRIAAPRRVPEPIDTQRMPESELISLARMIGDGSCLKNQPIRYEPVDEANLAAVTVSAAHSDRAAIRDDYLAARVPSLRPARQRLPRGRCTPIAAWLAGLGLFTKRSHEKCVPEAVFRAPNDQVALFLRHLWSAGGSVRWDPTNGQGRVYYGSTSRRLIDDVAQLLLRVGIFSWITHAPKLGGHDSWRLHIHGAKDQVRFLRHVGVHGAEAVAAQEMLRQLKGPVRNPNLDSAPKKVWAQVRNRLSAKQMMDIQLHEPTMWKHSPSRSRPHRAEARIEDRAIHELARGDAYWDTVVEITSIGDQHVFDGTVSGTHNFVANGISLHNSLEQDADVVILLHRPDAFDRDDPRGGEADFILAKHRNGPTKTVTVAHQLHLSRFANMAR
# Protein RecA = target: T4, Protein RecA (Mycobacterium tuberculosis, UniProt P9WHJ3); test: Fluorescence Cell-Free Homogeneous Dose Retest to Identify Inhibitors of RecA-Intein Splicing Activity. [Related pubchem assays (depositor defined):AID2097, AID2223, AID489010, AID492950]; assay type: functional
# T4 sequence (P9WHJ3 whole entry): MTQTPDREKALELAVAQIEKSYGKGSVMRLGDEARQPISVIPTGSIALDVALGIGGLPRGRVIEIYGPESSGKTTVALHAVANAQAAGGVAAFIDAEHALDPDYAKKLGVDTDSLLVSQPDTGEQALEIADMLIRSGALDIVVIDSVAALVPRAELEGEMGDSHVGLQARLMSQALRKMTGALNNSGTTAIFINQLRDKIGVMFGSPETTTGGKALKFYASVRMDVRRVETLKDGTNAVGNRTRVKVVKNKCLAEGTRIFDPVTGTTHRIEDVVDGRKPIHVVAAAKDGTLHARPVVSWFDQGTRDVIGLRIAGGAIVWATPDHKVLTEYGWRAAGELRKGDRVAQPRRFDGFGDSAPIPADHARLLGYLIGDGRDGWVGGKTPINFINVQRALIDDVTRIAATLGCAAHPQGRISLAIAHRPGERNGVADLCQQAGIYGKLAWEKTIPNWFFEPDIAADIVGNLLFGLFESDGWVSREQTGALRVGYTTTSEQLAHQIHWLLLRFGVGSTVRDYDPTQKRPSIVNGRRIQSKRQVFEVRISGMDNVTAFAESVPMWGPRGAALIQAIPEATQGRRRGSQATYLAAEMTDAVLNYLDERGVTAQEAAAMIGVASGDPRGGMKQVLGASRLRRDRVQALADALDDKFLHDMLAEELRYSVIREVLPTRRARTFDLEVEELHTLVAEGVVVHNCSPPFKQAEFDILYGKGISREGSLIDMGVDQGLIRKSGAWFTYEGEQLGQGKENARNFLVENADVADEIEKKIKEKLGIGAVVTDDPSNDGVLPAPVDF
# [16] = target: Heat shock protein HSP 90-alpha (Homo sapiens, UniProt P07900); assay type: functional, organism-based
# Large T antigen = Large T antigen (Simian virus 40, UniProt P03070); assay type: functional, Betapolyomavirus macacae;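 note: Confirmatory-stage PubChem screen for compounds that inhibit SV40 T antigen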
# Large T antigen, sequence (P03070 whole entry): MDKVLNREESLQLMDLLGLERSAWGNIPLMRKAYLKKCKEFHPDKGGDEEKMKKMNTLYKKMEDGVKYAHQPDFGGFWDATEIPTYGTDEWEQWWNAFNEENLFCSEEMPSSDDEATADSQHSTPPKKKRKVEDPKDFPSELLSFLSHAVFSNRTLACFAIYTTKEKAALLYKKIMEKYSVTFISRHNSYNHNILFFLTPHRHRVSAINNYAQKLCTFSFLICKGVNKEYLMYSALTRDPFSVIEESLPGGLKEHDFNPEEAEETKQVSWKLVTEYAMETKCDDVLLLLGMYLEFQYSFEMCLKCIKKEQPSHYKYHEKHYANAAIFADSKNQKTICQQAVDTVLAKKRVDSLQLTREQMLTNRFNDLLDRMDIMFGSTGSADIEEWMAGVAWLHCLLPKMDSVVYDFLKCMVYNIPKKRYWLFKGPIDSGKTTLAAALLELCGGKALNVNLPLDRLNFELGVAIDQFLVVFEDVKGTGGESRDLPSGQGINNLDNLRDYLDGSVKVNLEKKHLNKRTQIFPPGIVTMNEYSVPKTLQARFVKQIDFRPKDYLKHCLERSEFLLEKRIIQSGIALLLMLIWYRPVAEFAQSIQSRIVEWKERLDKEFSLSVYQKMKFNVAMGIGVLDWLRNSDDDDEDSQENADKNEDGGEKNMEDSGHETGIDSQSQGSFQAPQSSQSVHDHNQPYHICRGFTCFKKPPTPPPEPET
compound,measurement,setting,value
CC(C)CC(=O)n1sc(NC(=O)c2ccccc2)nc1=O,IC50,Leucine aminopeptidase,43.9 µM (active)
CCCCN(CCCNC(=O)C1CCN(S(=O)(=O)CC)CC1)c1ccccc1,AC50,[1],0.131 µM (active)
same,EC50,[2],> 260 µM (inactive)
COc1ccc(Nc2ccc(S(=O)(=O)N3CCCCCC3)cc2[N+](=O)[O-])cc1,IC50,Nonstructural protein 1,45.6 µM (active)
COc1ccc(N2CC(C(=O)NCc3ccccc3)CC2=O)cc1 (stereo not given),EC50,[3],> 112 µM (not active)
same,EC50,[4],> 112 µM (not active)
Cc1ccc(C(=O)c2c(NC(=O)c3ccncc3)sc3c2CCCC3)cc1,EC50,[5],< 0.1 µM (active)
same,EC50,cells [6],0.266 µM (active)
same,EC50,[7],> 60 µM (not active)
CCN(CC)CCNS(=O)(=O)c1ccc(C(=O)NN)cc1,AC50,[1],3.39 µM (active)
COc1cc2cc(C(N)=O)c(N)nc2cc1OC,EC50,[3],> 112 µM (not active)
same,EC50,[4],40 µM (active)
CCCN1CCC(=NNC(=O)c2ccc(Br)o2)CC1,IC50,[8],> 64 µM (inactive)
Cc1ccc2c(CN3CCN(Cc4ccccc4)CC3)cc(=O)oc2c1C,EC50,[5],< 0.1 µM (active)
same,EC50,cells [6],0.065 µM (active)
same,EC50,[7],> 60 µM (not active)
CC1=C(C(=O)OCc2ccccc2)C(c2ccc(Cl)cc2Cl)NC(=O)N1CCCCCC(=O)O (stereo not given),IC50,Leucine aminopeptidase,20.4 µM (active)
CCOC(=O)c1nc(O)c2c3c(sc2n1)CCCC3,EC50,[4],> 112 µM (not active)
CCOC(=O)c1nc2sc3c(c2c(=O)[nH]1)CCCC3,EC50,[3],> 112 µM (not active)
Cc1cc2nc(N/C(N)=N/C(=O)C(C)C)nc(C)c2cc1C,CC50,[9],17 µM (active)
same,CC50,[10],> 40 µM (active)
same,IC50,cells [11],20.3 µM (active)
same,EC50,[12],> 150 µM (not active)
same,EC50,Streptococcus,> 150 µM (not active)
CCc1ccc2oc(=O)cc(CN3CCN(Cc4ccccc4)CC3)c2c1,EC50,[5],< 0.1 µM (active)
same,EC50,cells [6],0.127 µM (active)
same,EC50,[7],> 60 µM (not active)
CCN(CC)CCN(C(=O)C1CCCCC1)c1nc2cc3c(cc2s1)OCO3,EC50,[5],< 0.1 µM (active)
same,EC50,cells [6],0.514 µM (active)
same,EC50,[7],> 60 µM (not active)
Fc1ccc(C2CC(c3ccccc3)n3ncnc3N2)cc1 (stereo not given),EC50,[3],> 112 µM (not active)
same,EC50,[4],> 112 µM (not active)
Cn1nc(C(=O)OCC(=O)Nc2sccc2C(N)=O)c2ccccc2c1=O,EC50,[3],> 112 µM (not active)
same,EC50,[4],> 112 µM (not active)
O=C(CSc1nc[nH]n1)Nc1ccc(S(=O)(=O)N2CCCC2)cc1,IC50,Leucine aminopeptidase,82.5 µM (active)
CCc1ccc(C2=NN(c3ccc(S(N)(=O)=O)cc3)C(c3ccc(F)cc3)C2)cc1 (stereo not given),EC50,[13],17.9 µM (active)
same,CC50,[10],27.6 µM (active)
same,EC50,[14],16.6 µM (active)
O=C1CC(N2CCc3ccccc32)C(=O)N1c1ccccc1 (stereo not given),AC50,[1],0.677 µM (active)
O=C(CCl)Nc1sccc1C(=O)c1ccccc1,AC50,[15],4.8 µM (active)
same,EC50,Protein RecA,4.78 µM (active)
same,CC50,[10],18.1 µM (active)
CC(C)COc1ccc(C(=O)Nc2ccc(NC(=O)c3ccco3)c(Cl)c2)cc1,EC50,[3],> 112 µM (not active)
same,EC50,[4],> 112 µM (not active)
COc1cc(C=NO)nc(-c2ccccn2)c1,IC50,Nonstructural protein 1,2.51 µM (active)
same,AC50,[16],3.2 µM (active)
Cc1ccsc1/C=N/n1c(S)nnc1-c1cccnc1,IC50,[8],> 64 µM (inactive)
same,IC50,Large T antigen,30.3 µM (active)
Cc1[nH]c(=O)c(C#N)cc1-c1ccncc1 [MILRINONE],EC50,[3],> 112 µM (not active)
same,EC50,[4],0.634 µM (active)
